Earlier results on 2 compounds are cited in US20250064831A1 (Acerus Biopharma Inc., priority 2012, published 2025).

The conditions of series [1]: polyethylene glycol (200 mg/ml), high variations.
For series [2] the following is noted: progesterone/cyclodextrin powder mixtures, nasal.
For series [3] the following is noted: in vivo.

With `CC(=O)[C@H]1CC[C@H]2[C@@H]3CCC4=CC(=O)CC[C@]4(C)[C@H]3CC[C@]12C` [progesterone], the “duration of serum level” value in series [1] is reported as “at least 8 hours”. In addition, the serum level decrease in series [2] is no more than 20 min.

Consider `CN(C)CC(=O)O[C@H]1CC[C@H]2[C@@H]3CCC4=CC(=O)CC[C@]4(C)[C@H]3CC[C@]12C` [testosterone 17β-N,N-dimethylglycinate], for which, in series [3], the elimination half-lives result is “about 55 min”.
